The subject of one experiment is HTT mRNA. Put plainly: Splicing RT-qPCR assay, HTT canonical (CJ) and alternative (AJ) junction mRNA. Format: cell-based, human. Particulars: Homo sapiens, A673 or K562 cells, 24 hours compound treatment; for IC50: 24 h, read-out: HTT CJ (IC50, decrease in canonical junction mRNA); for AC50: read-out: HTT AJ (AC50, increase in alternative junction mRNA). A digest of the protocol: (§1)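 A673 or K562 cells were treated 24 h at 37 °C with an 11-point 3-fold compound dilution series (top 10 uM, DMSO ≤0.25%). Lysates went to one-step RT-qPCR measuring canonical (CJ) and alternative-exon (AJ) junction transcripts, normalized to GAPDH, GUSB or PPIA.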
Background: In qPCR the cycle at which signal appears reflects the starting amount.

The test system of another experiment is MYB mRNA. Put plainly: Splicing RT-qPCR assay, MYB canonical (CJ) and alternative (AJ) junction mRNA. Format: cell-based, human. Particulars: Homo sapiens, 24 h, A673 or K562 cells, 24 hours compound treatment, RT-qPCR; for AC50: read-out: MYB AJ (AC50, increase in alternative junction mRNA); for IC50: read-out: MYB CJ (IC50, decrease in canonical junction mRNA). In outline:
as §1

The results in this text go back to patent publication US20250154169A1, “COMPOUNDS AND METHODS FOR MODULATING SPLICING” (REMIX THERAPEUTICS INC., priority 2021, published 2025).

The term IC50 denotes the concentration needed to halve the response being measured. The term AC50 denotes the midpoint of the concentration-response curve, whichever way the signal moves.

Molecules are shown by their SMILES.

`CCn1cc2c(N3CCC(NC4C5COCC54)CC3)ccc(C(=O)Nc3cc(F)c4nc(C)cn4c3)c2n1` (centres unmarked) [Compound 581, 2-ethyl-N-{8-fluoro-2-methylimidazo[1,2-a]pyridin-6-yl}-4-(4-{3-oxabicyclo[3.1.0]hexan-6-ylamino}piperidin-1-yl) indazole-7-carboxamide]: in the experiment on HTT mRNA, the IC50 was 1 to 10 µM and the half-maximal activity concentration (AC50) is 1 to 10 µM. In the experiment on MYB mRNA, the AC50 lay within 0.1 to 1 µM and the half-maximal inhibitory concentration (IC50) fell in the range of 0.1 to 1 µM.

Take `CCn1cc2c(N3CCNCC3)ccc(C(=O)Nc3cc(F)c4nc(CO)oc4c3)c2n1` [Compound 582, 2-ethyl-N-[4-fluoro-2-(hydroxymethyl)-1,3-benzoxazol-6-yl]-4-(piperazin-1-yl) indazole-7-carboxamide]: in the experiment with HTT mRNA, the IC50 was in the range of 0.1 to 1 µM and the AC50 lay within 0.1 to 1 µM. Moreover, in the experiment with MYB mRNA, the AC50 lay within 0.1 to 1 µM and the concentration for half-maximal inhibition (IC50) fell in the range of 0.1 to 1 µM.

As to `CCn1cc2c(N3C[C@@H](F)[C@H](NC)C3)ccc(C(=O)Nc3cc(F)c4nc(C)cn4c3)c2n1` [Compound 584, 2-ethyl-N-{8-fluoro-2-methylimidazo[1,2-a]pyridin-6-yl}-4-[(3R,4R)-3-fluoro-4-(methylamino)pyrrolidin-1-yl]indazole-7-carboxamide], in the experiment on HTT mRNA, the IC50 was 1 to 10 µM and the AC50 was in the range of 1 to 10 µM. For the same compound, in the experiment with MYB mRNA, the AC50 was 0.1 to 1 µM and the IC50 fell in the range of 0.1 to 1 µM.

As for `CCn1cc2c(N3C[C@H](F)[C@H](NC)C3)ccc(C(=O)Nc3cc(F)c4nc(C)cn4c3)c2n1` [Compound 585, cis-2-ethyl-N-(8-fluoro-2-methylimidazo[1,2-a]pyridin-6-yl)-4-((3S,4R)-3-fluoro-4-(methylamino)pyrrolidin-1-yl)-2H-indazole-7-carboxamide bis(2,2,2-trifluoroacetate)], the IC50 was more than 10 µM with HTT mRNA and 0.1 to 1 µM in the experiment with MYB mRNA. Besides, the concentration at half-maximal activity (AC50) in the experiment on HTT mRNA is more than 10 µM; with MYB mRNA, 0.1 to 1 µM.

Consider `Cc1cn2cc(NC(=O)c3c(F)cc(N4CC[C@@H](NC5(C#N)CC5)C4)c4cn(C)nc34)cc(F)c2n1` [Compound 587, 4-[(3R)-3-[(1-cyanocyclopropyl)amino]pyrrolidin-1-yl]-6-fluoro-N-{8-fluoro-2-methylimidazo[1,2-a]pyridin-6-yl}-2-methylindazole-7-carboxamide], for which the IC50 in the experiment on HTT mRNA and in the experiment with MYB mRNA was 0.1 to 1 µM each time. Also, the half-maximal activity concentration (AC50) in the experiment on HTT mRNA and in the experiment with MYB mRNA was 0.1 to 1 µM each time.

With `Cc1cn2cc(NC(=O)c3ccc(N4CCN[C@@H](C(C)C)C4)c4cn(C)nc34)cc(F)c2n1` [Compound 589, N-{8-fluoro-2-methylimidazo[1,2-a]pyridin-6-yl}-4-[(3S)-3-isopropylpiperazin-1-yl]-2-methylindazole-7-carboxamide], the half-maximal inhibitory concentration (IC50) was more than 10 µM in the experiment with HTT mRNA and 0.1 to 1 µM with MYB mRNA. The AC50 in the experiment with HTT mRNA was more than 10 µM; in the experiment with MYB mRNA, 1 to 10 µM.

As to `CCn1cc2c(N3CCC(NC4(CO)CC4)CC3)ccc(C(=O)Nc3cc(F)c4nc(C)cn4c3)c2n1` [Compound 590], the concentration for half-maximal inhibition (IC50) in the experiment with HTT mRNA was 1 to 10 µM; in the experiment with MYB mRNA, 0.1 to 1 µM. Also, the AC50 was 1 to 10 µM in the experiment with HTT mRNA and 0.1 to 1 µM in the experiment with MYB mRNA.

`CCn1cc2c(N3C[C@H](C)N[C@@H](C)C3)ccc(C(=O)Nc3cc(F)c4nc(C)cn4c3)c2n1` [Compound 592]: in the experiment on HTT mRNA, the half-maximal inhibitory concentration (IC50) lay in the range of 1 to 10 µM and the AC50 is more than 10 µM. Besides, in the experiment on MYB mRNA, the AC50 was 0.1 to 1 µM and the half-maximal inhibitory concentration (IC50) was in the range of 0.1 to 1 µM.

As for `Cc1cn2cc(NC(=O)c3ccc(N4CC[C@@H](NCc5ncccn5)C4)c4cn(C)nc34)cc(F)c2n1` [Compound 594, N-{8-fluoro-2-methylimidazo[1,2-a]pyridin-6-yl}-2-methyl-4-[(3R)-3-[(pyrimidin-2-ylmethyl)amino]pyrrolidin-1-yl]indazole-7-carboxamide], in the experiment on HTT mRNA, the IC50 is more than 10 µM and the AC50 is more than 10 µM. In addition, in the experiment on MYB mRNA, the AC50 was 1 to 10 µM and the IC50 is 0.1 to 1 µM.

Take `Cc1cn2cc(NC(=O)c3ccc(N4CC[C@@H](NC5(C#N)CC5)C4)c4cn(C)nc34)cc(F)c2n1` [Compound 596, 4-[(3R)-3-[(1-cyanocyclopropyl)amino]pyrrolidin-1-yl]-N-{8-fluoro-2-methylimidazo[1,2-a]pyridin-6-yl}-2-methylindazole-7-carboxamide]: in the experiment on HTT mRNA, the IC50 was more than 10 µM and the half-maximal activity concentration (AC50) is more than 10 µM. Besides, in the experiment on MYB mRNA, the half-maximal activity concentration (AC50) lay in the range of 1 to 10 µM and the IC50 lay within 1 to 10 µM.

As to `Cc1cn2cc(NC(=O)c3ccc(N4CC[C@@H](NC5(C)CC5)C4)c4cn(C)nc34)cc(F)c2n1` [Compound 598], in the experiment with HTT mRNA, the half-maximal inhibitory concentration (IC50) lay within 1 to 10 µM and the half-maximal activity concentration (AC50) lay in the range of 1 to 10 µM. Also, in the experiment on MYB mRNA, the concentration at half-maximal activity (AC50) lay in the range of 0.1 to 1 µM and the concentration for half-maximal inhibition (IC50) is less than 0.1 µM.

Turning to `CCn1cc2c(N3C[C@@H](C)N[C@@H](C(C)C)C3)ccc(C(=O)Nc3cc(F)c4nc(C)cn4c3)c2n1` [Compound 600, 2-ethyl-N-{8-fluoro-2-methylimidazo[1,2-a]pyridin-6-yl}-4-[(3S,5R)-3-isopropyl-5-methylpiperazin-1-yl] indazole-7-carboxamide], the half-maximal inhibitory concentration (IC50) with HTT mRNA was more than 10 µM; in the experiment with MYB mRNA, 1 to 10 µM. The results for the concentration at half-maximal activity (AC50) in the experiment on HTT mRNA and in the experiment with MYB mRNA were more than 10 µM and 1 to 10 µM, respectively.

In the case of `Cc1cn2cc(NC(=O)c3ccc(N4CC[C@@H](NC5CC(O)C5)C4)c4cn(C)nc34)cc(F)c2n1` (some centres unmarked) [Compound 602], in the experiment with HTT mRNA, the IC50 lay in the range of 1 to 10 µM and the AC50 was in the range of 1 to 10 µM. Further, in the experiment on MYB mRNA, the AC50 was in the range of 0.1 to 1 µM and the IC50 was less than 0.1 µM.

For `Cc1cn2cc(NC(=O)c3ccc(N4CC[C@H](NC5CC(O)C5)C4)c4cn(C)nc34)cc(F)c2n1` (some centres unmarked) [Compound 603], in the experiment on HTT mRNA, the IC50 was more than 10 µM and the concentration at half-maximal activity (AC50) is more than 10 µM. In addition, in the experiment on MYB mRNA, the AC50 is more than 10 µM and the IC50 lay within 1 to 10 µM.

As for `CCn1cc2c(N3CCNCC3)ccc(C(=O)Nc3cn4cc(C)nc4c(Cl)n3)c2n1` [Compound 604, N-{8-chloro-2-methylimidazo[1,2-a]pyrazin-6-yl}-2-ethyl-4-(piperazin-1-yl) indazole-7-carboxamide], the concentration for half-maximal inhibition (IC50) is more than 10 µM in the experiment with HTT mRNA and 1 to 10 µM with MYB mRNA. The values for the AC50 with HTT mRNA and in the experiment with MYB mRNA were more than 10 µM and 1 to 10 µM, respectively.

For the compound `Cc1cn2cc(NC(=O)c3ccc(N4CCN[C@@H](C5CC5)C4)c4cn(C)nc34)cc(F)c2n1` [Compound 606, 4-[(3S)-3-cyclopropylpiperazin-1-yl]-N-{8-fluoro-2-methylimidazo[1,2-a]pyridin-6-yl}-2-methylindazole-7-carboxamide], the IC50 in the experiment with HTT mRNA and with MYB mRNA was 0.1 to 1 µM throughout. The half-maximal activity concentration (AC50) in the experiment on HTT mRNA was in the range of 1 to 10 µM; in the experiment with MYB mRNA, 0.1 to 1 µM.

For the compound `Cc1cn2cc(NC(=O)c3ccc(N4CCN[C@H](C5CC5)C4)c4cn(C)nc34)cc(F)c2n1` [Compound 607, 4-[(3R)-3-cyclopropylpiperazin-1-yl]-N-{8-fluoro-2-methylimidazo[1,2-a]pyridin-6-yl}-2-methylindazole-7-carboxamide], in the experiment on HTT mRNA, the IC50 was 1 to 10 µM and the concentration at half-maximal activity (AC50) lay in the range of 1 to 10 µM. For the same compound, in the experiment on MYB mRNA, the AC50 is 0.1 to 1 µM and the IC50 was in the range of 0.1 to 1 µM.

`CN[C@@H]1CCN(c2ccc(C(=O)Nc3cn4cc(C)nc4c(Oc4ccccc4)n3)c3nn(C)cc23)C1` [Compound 610, 2-methyl-N-{2-methyl-8-phenoxyimidazo[1,2-a]pyrazin-6-yl}-4-[(3R)-3-(methylamino)pyrrolidin-1-yl]indazole-7-carboxamide]: in the experiment on HTT mRNA, the IC50 is more than 10 µM and the concentration at half-maximal activity (AC50) is 1 to 10 µM. For the same compound, in the experiment on MYB mRNA, the half-maximal activity concentration (AC50) was in the range of 0.1 to 1 µM and the IC50 is 0.1 to 1 µM.

For `CN[C@@H]1CCN(c2ccc(C(=O)Nc3cn4cc(C)nc4c(N4CCOCC4)n3)c3nn(C)cc23)C1` [Compound 612, 2-methyl-N-[2-methyl-8-(morpholin-4-yl)imidazo[1,2-a]pyrazin-6-yl]-4-[(3R)-3-(methylamino)pyrrolidin-1-yl]indazole-7-carboxamide], the concentration for half-maximal inhibition (IC50) in the experiment on HTT mRNA and in the experiment on MYB mRNA was more than 10 µM in each case. For the same compound, the concentration at half-maximal activity (AC50) in the experiment with HTT mRNA and with MYB mRNA was more than 10 µM each time.

For `CN[C@@H]1CCN(c2ccc(C(=O)Nc3cn4cc(C)nc4c(Cl)n3)c3nn(C)cc23)C1` [Compound 614], the 50% inhibitory concentration (IC50) with HTT mRNA was more than 10 µM; in the experiment on MYB mRNA, 0.1 to 1 µM. The concentration at half-maximal activity (AC50) in the experiment with HTT mRNA was more than 10 µM; in the experiment on MYB mRNA it was 0.1 to 1 µM.

Regarding `CCn1cc2c(N3C[C@@H](C)N[C@@H](C4CC4)C3)ccc(C(=O)Nc3cc(F)c4nc(C)cn4c3)c2n1` [Compound 616, 4-((3S,5R)-3-cyclopropyl-5-methylpiperazin-1-yl)-2-ethyl-N-(8-fluoro-2-methylimidazo[1,2-a]pyridin-6-yl)-2H-indazole-7-carboxamide], in the experiment on HTT mRNA, the concentration for half-maximal inhibition (IC50) was in the range of 0.1 to 1 µM and the concentration at half-maximal activity (AC50) was 1 to 10 µM. Further, in the experiment with MYB mRNA, the AC50 was 0.1 to 1 µM and the IC50 was in the range of 0.1 to 1 µM.

`CCn1cc2c(N3C[C@@H](C4CC4)N[C@@H](C)C3)ccc(C(=O)Nc3cc(F)c4nc(C)cn4c3)c2n1` [Compound 617, 4-((3R,5S)-3-cyclopropyl-5-methylpiperazin-1-yl)-2-ethyl-N-(8-fluoro-2-methylimidazo[1,2-a]pyridin-6-yl)-2H-indazole-7-carboxamide]: the IC50 with HTT mRNA lay in the range of 1 to 10 µM; in the experiment on MYB mRNA, 0.1 to 1 µM. The figures for the AC50 in the experiment with HTT mRNA and in the experiment with MYB mRNA were more than 10 µM and 1 to 10 µM, respectively.

On to `CCn1cc2c(N3CC[C@@H](N(C)C)C3)cc(Cl)c(C(=O)Nc3cc(F)c4nc(C)cn4c3)c2n1` [Compound 619, 6-chloro-4-[(3R)-3-(dimethylamino)pyrrolidin-1-yl]-2-ethyl-N-{8-fluoro-2-methylimidazo[1,2-a]pyridin-6-yl}indazole-7-carboxamide], for which, in the experiment with HTT mRNA, the IC50 is more than 10 µM and the AC50 is more than 10 µM. In the experiment on MYB mRNA, the concentration at half-maximal activity (AC50) lay within 0.1 to 1 µM and the IC50 fell in the range of 0.1 to 1 µM.
